Measured values as given in article PMC3063099 (Xenobiotica; the fate of foreign compounds in biological …, 2010).
Where two headings read alike, the source gives them in different places.

Legend:
CYP3A4 wild type [1] = molecular target: T1, CYP3A4 wild type (Homo sapiens, UniProt P08684); experiment: Titration-by-dilution monitored by FRET; format: binding; conditions: for Efficiency of FRET: wild type
CYP3A4 mutant F213W [2] = molecular target: T2, CYP3A4 mutant F213W (Homo sapiens, UniProt P08684, F213W); experiment: Titration-by-dilution monitored by FRET; format: binding; conditions: for Efficiency of FRET: F213W
T2 sequence (P08684 whole entry F213W): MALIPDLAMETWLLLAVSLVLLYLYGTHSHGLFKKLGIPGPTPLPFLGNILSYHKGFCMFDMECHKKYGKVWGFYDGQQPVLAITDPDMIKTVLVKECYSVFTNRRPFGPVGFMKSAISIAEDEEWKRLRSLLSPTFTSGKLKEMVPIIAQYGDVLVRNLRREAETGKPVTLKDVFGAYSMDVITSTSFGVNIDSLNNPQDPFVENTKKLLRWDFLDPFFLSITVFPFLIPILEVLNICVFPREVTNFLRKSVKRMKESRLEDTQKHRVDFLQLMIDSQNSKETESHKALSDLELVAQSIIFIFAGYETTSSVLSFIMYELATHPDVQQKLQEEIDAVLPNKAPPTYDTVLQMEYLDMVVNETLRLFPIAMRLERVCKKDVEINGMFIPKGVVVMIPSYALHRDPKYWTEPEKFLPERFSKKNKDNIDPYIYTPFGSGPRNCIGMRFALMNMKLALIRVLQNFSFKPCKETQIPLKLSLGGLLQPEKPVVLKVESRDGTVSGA

CYP3A4 mutant F304W [3] = molecular target: T3, CYP3A4 mutant F304W (Homo sapiens, UniProt P08684, F304W); experiment: Titration-by-dilution monitored by FRET; format: binding; conditions: for Efficiency of FRET: F304W
T3 sequence (P08684 whole entry F304W): as the sequence (P08684 whole entry F213W) above, with W213F, F304W counted along it

[4] = molecular target: T4, CYP3A4 mutant L211F/D214E (Homo sapiens, UniProt P08684, D214E/L211F); experiment: Titration-by-dilution monitored by FRET; format: binding; conditions: for Efficiency of FRET: L211F/D214E
T4 sequence (P08684 whole entry L211F/D214E): as the sequence (P08684 whole entry F213W) above, with L211F, W213F, D214E counted along it

CYP3A4 wild type [5] = molecular target: T1, CYP3A4 wild type; experiment: Titration-by-dilution at excess substrate monitored by spin shift; format: binding
CYP3A4 mutant F213W [6] = molecular target: T2, CYP3A4 mutant F213W; experiment: as above; format: binding
CYP3A4 mutant F304W [7] = molecular target: T3, CYP3A4 mutant F304W; experiment: as above; format: binding
[8] = molecular target: T4, CYP3A4 mutant L211F/D214E; experiment: as above; format: binding
CYP3A4 wild type [9] = molecular target: T1, CYP3A4 wild type; experiment: Absorbance titration, substrate-induced spin shift; conditions: for Kd: human, pH 7.4; for nH (Hill coefficient): Hill equation fit
CYP3A4 mutant F213W [10] = molecular target: T2, CYP3A4 mutant F213W; experiment: Absorbance titration, substrate-induced spin shift; conditions: for nH (Hill coefficient): Hill equation fit; for Kd: human, pH 7.4
CYP3A4 mutant F304W [11] = molecular target: T3, CYP3A4 mutant F304W; experiment: Absorbance titration, substrate-induced spin shift; conditions: for nH (Hill coefficient): Hill equation fit; for Kd: human, pH 7.4
[12] = molecular target: T4, CYP3A4 mutant L211F/D214E; experiment: Absorbance titration, substrate-induced spin shift; conditions: for nH (Hill coefficient): Hill equation fit; for Kd: human, pH 7.4
CYP3A4 wild type [13] = molecular target: T1, CYP3A4 wild type; conditions: pH 7.4
CYP3A4 mutant F213W [14] = molecular target: T2, CYP3A4 mutant F213W; conditions: pH 7.4
CYP3A4 mutant F304W [15] = molecular target: T3, CYP3A4 mutant F304W; conditions: pH 7.4
[16] = molecular target: T4, CYP3A4 mutant L211F/D214E; conditions: pH 7.4
[17] = human, CYP3A4 wild type enzyme in buffer, pH 7.4
[18] = equimolar enzyme-substrate mixture

T1 sequence (P08684 whole entry): as the sequence (P08684 whole entry F213W) above, with W213F counted along it

SMILES: OCCCCc1ccc2ccc3cccc4ccc1c2c34 [1-PB, 1-pyrenebutanol]
- Kd (CYP3A4 wild type [1]): 0.25 ± 0.11 µM
- Kd (CYP3A4 wild type [1]; [17]): 5 ± 1.1 µM
- Efficiency of FRET (CYP3A4 wild type [1]; [18]): 95.2 ± 5.7%
- Efficiency of FRET (CYP3A4 wild type [1]; excess substrate (1:4)): 108.0 ± 1.2%
- Efficiency of FRET (CYP3A4 mutant F213W [2]; [18]): 80.8 ± 26.4%
- Efficiency of FRET (CYP3A4 mutant F213W [2]; excess substrate (1:5)): 109.0 ± 2.0%
- Kd (CYP3A4 mutant F213W [2]; KD1, F213W, equimolar enzyme-substrate mixture, FRET, 0.6 mg/ml HPCD): 0.07 ± 0.04 µM
- Efficiency of FRET (CYP3A4 mutant F304W [3]; [18]): 99.6 ± 7.8%
- Efficiency of FRET (CYP3A4 mutant F304W [3]; excess substrate (1:6)): 109.0 ± 1.6%
- Kd (CYP3A4 mutant F304W [3]; KD1, F304W, equimolar enzyme-substrate mixture, FRET, 0.6 mg/ml HPCD): 0.26 ± 0.08 µM
- Kd ([4]; KD1, L211F/D214E, equimolar enzyme-substrate mixture, FRET, 0.6 mg/ml HPCD): 0.82 ± 0.43 µM
- Efficiency of FRET [4, 18]: 108.4 ± 12.9%
- Efficiency of FRET ([4]; excess substrate (1:6)): 83.4 ± 16.4%
- Kd (CYP3A4 wild type [5]; [17]): 10.2 ± 1.2 µM
- Δhmax, maximal amplitude of the spin shift deduced from fitting (CYP3A4 wild type [5]; wild type, dilution at excess substrate (1:5)): 49.7 ± 7.3%
- Δhmax, maximal amplitude of the spin shift deduced from fitting (CYP3A4 mutant F213W [6]; F213W, dilution at excess substrate (1:5)): 40.0 ± 16%
- Kd (CYP3A4 mutant F213W [6]; human, CYP3A4 mutant F213W enzyme in buffer, pH 7.4): 14.4 ± 1.5 µM
- Δhmax, maximal amplitude of the spin shift deduced from fitting (CYP3A4 mutant F304W [7]; F304W, dilution at excess substrate (1:5)): 23.2 ± 14.0%
- Kd (CYP3A4 mutant F304W [7]; human, CYP3A4 mutant F304W enzyme in buffer, pH 7.4): 11.4 ± 1.1 µM
- Δhmax, maximal amplitude of the spin shift deduced from fitting ([8]; L211F/D214E, dilution at excess substrate (1:5)): 18.2 ± 7.1%
- Kd ([8]; human, CYP3A4 mutant L211F/D214E enzyme in buffer, pH 7.4): 7.3 ± 2.9 µM
- Kd (CYP3A4 wild type [9]; 0.1 m na-hepes): 11.7 ± 2.4 µM
- Kd (CYP3A4 wild type [9]): 12.6 µM
- nH (Hill coefficient) (CYP3A4 wild type [9]; wild type, pH 7.4, 25 °C): 1.67 ± 0.18
- nH (Hill coefficient) (CYP3A4 wild type [9]; wild type, pH 7.4, 25 °C, listed as 1-pyrenebutanol): around 1.7
- Δhmax, amplitude of the substrate-induced spin shift (CYP3A4 wild type [9]; wild type, absorbance titration, pH 7.4, 25 °C): 46.7 ± 4.9%
- FES, fraction of total spin shift caused by the binary complex ES (CYP3A4 wild type [9]; wild type, fit to improved sequential model): 0
- nH (Hill coefficient) (CYP3A4 mutant F213W [10]; F213W, pH 7.4, 25 °C): 1.07 ± 0.16
- nH (Hill coefficient) (CYP3A4 mutant F213W [10]; F213W, pH 7.4, 25 °C, listed as 1-pyrenebutanol): ≤ 1.1
- Δhmax, amplitude of the substrate-induced spin shift (CYP3A4 mutant F213W [10]; F213W, absorbance titration, pH 7.4, 25 °C): 57.0 ± 5.9%
- FES, fraction of total spin shift caused by the binary complex ES (CYP3A4 mutant F213W [10]; F213W, fit to improved sequential model, KD1 fixed): 7.9 ±1.0%
- Kd (CYP3A4 mutant F213W [10]; 0.1 m na-hepes): 12.6 ± 4.6 µM
- nH (Hill coefficient) (CYP3A4 mutant F304W [11]; F304W, pH 7.4, 25 °C): 1.07 ± 0.12
- nH (Hill coefficient) (CYP3A4 mutant F304W [11]; F304W, pH 7.4, 25 °C, listed as 1-pyrenebutanol): ≤ 1.1
- Δhmax, amplitude of the substrate-induced spin shift (CYP3A4 mutant F304W [11]; F304W, absorbance titration, pH 7.4, 25 °C): 57.7 ± 5.6%
- FES, fraction of total spin shift caused by the binary complex ES (CYP3A4 mutant F304W [11]; F304W, fit to improved sequential model, KD1 fixed): 15.1 ± 0.8%
- Kd (CYP3A4 mutant F304W [11]; 0.1 m na-hepes): 10.7 ± 2 µM
- nH (Hill coefficient) ([12]; L211F/D214E, pH 7.4, 25 °C): 1.07 ± 0.17
- nH (Hill coefficient) ([12]; L211F/D214E, pH 7.4, 25 °C, listed as 1-pyrenebutanol): ≤ 1.1
- Δhmax, amplitude of the substrate-induced spin shift ([12]; L211F/D214E, absorbance titration, pH 7.4, 25 °C): 39.4 ± 5.1%
- FES, fraction of total spin shift caused by the binary complex ES ([12]; L211F/D214E, fit to improved sequential model, KD1 fixed): 21.0 ± 5.7%
- Kd ([12]; 0.1 m na-hepes): 12.1 ± 1.8 µM

SMILES: O=c1cc(-c2ccccc2)oc2c1ccc1ccccc12 [ANF, α-naphthoflavone]
- Δhmax, amplitude of the substrate-induced spin shift (CYP3A4 wild type [13]): 40.0 ± 2.5%
- Δhmax, amplitude of the substrate-induced spin shift (CYP3A4 mutant F213W [14]): 33.5 ± 2.1%
- Δhmax, amplitude of the substrate-induced spin shift (CYP3A4 mutant F304W [15]): 36.0 ± 5.2%
- Δhmax, amplitude of the substrate-induced spin shift [16]: 27.9 ± 2.2%
- Kd (CYP3A4 wild type [9]; CYP3A4 wild type enzyme in buffer): 3.66 ± 0.7 µM
- nH (Hill coefficient) (CYP3A4 wild type [9]; wild type, pH 7.4, 25 °C): 2.04 ± 0.30
- nH (Hill coefficient) (CYP3A4 mutant F213W [10]; F213W, pH 7.4, 25 °C): 1.52 ± 0.30
- Kd (CYP3A4 mutant F213W [10]; CYP3A4 mutant F213W enzyme in buffer): 3.5 ± 1.36 µM
- nH (Hill coefficient) (CYP3A4 mutant F304W [11]; F304W, pH 7.4, 25 °C): 2.10 ± 0.20
- Kd (CYP3A4 mutant F304W [11]; CYP3A4 mutant F304W enzyme in buffer): 3.63 ± 1.46 µM
- nH (Hill coefficient) ([12]; L211F/D214E, pH 7.4, 25 °C): 1.68 ± 0.16
- Kd ([12]; CYP3A4 mutant L211F/D214E enzyme in buffer): 3.67 ± 1.16 µM
